Read-outs that look alike come from different tables or passages of the source.
Key:
[1] = 100 mg in 2.5 ml of 40 mg/ml solution, PARI LC PLUS nebulizer; cited from earlier work
[2] = Shelf-life and storage stability of lidocaine formulations; format: physicochemical
[3] = test system: mild to moderate asthma patients; conditions: placebo=0.35

Compound: CCN(CC)CC(=O)Nc1c(C)cccc1C [lidocaine, acetamide 2-(diethylamino)-N-(2,6-dimethylphenyl)]
- duration of oral numbing of lips, tongue and mucosa with impaired gag reflex following inhalation [1]: approximately 15 minutes
- stable without loss of strength ([2]; 1%, 4% or 10% solution in Blow-Fill-Seal vials with overwrap, room temperature): 9-12 months
- shelf-life of the dry form ([2]; dry form): at least 2 years
- AQLQ environmental domain, mean change at week 12 from baseline ([3]; 10 mg lidocaine, p=0.012 v. placebo): 2.09
- AQLQ environmental domain, mean change at week 12 from baseline ([3]; 40 mg lidocaine, p=0.01 v. placebo): 2.45
